Reference: the supplement of paper PMC8671470
± gives the standard deviation of the averaged measurements.

Tested on: HL-60
Test: cell viability (% survival relative to DMSO control); higher = less cytotoxic
Conditions: 72 h
Procedure, shortened: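 For each screen, HL-60 cells in RPMI 1640 with 10% FBS carried either DMSO or 100 nM of one of three metabolic inhibitors while the full library was applied at five tenfold concentrations, 1–10,000 nM, in duplicate. Plates were 384-well and were kept 72 h at 37 °C, 5% CO2. Viability, measured by CellTiter-Glo, was normalised to wells with DMSO and with 10 μM proteasome inhibitor. Where area under the curve appears, it was fitted by four-parameter log-logistic models in drc and PharmacoGx.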

[1] = 0.001 µM, co-treatment: AZD3965 100 nM
[2] = 0.001 µM, co-treatment: DMSO vehicle
[3] = 0.001 µM, co-treatment: GSK2194069 100 nM
[4] = 0.001 µM, co-treatment: pictilisib 100 nM
[5] = 0.01 µM, co-treatment: AZD3965 100 nM
[6] = 0.01 µM, co-treatment: DMSO vehicle
[7] = 0.01 µM, co-treatment: GSK2194069 100 nM
[8] = 0.01 µM, co-treatment: pictilisib 100 nM
[9] = 0.1 µM, co-treatment: AZD3965 100 nM
[10] = 0.1 µM, co-treatment: DMSO vehicle
[11] = 0.1 µM, co-treatment: GSK2194069 100 nM
[12] = 0.1 µM, co-treatment: pictilisib 100 nM
[13] = 1 µM, co-treatment: AZD3965 100 nM
[14] = 1 µM, co-treatment: DMSO vehicle
[15] = 1 µM, co-treatment: GSK2194069 100 nM
[16] = 1 µM, co-treatment: pictilisib 100 nM
[17] = 10 µM, co-treatment: AZD3965 100 nM
[18] = 10 µM, co-treatment: DMSO vehicle
[19] = 10 µM, co-treatment: GSK2194069 100 nM
[20] = 10 µM, co-treatment: pictilisib 100 nM

Structure (SMILES)	cell viability [1] [%]	cell viability [2] [%]	cell viability [3] [%]	cell viability [4] [%]	cell viability [5] [%]	cell viability [6] [%]	cell viability [7] [%]	cell viability [8] [%]	cell viability [9] [%]	cell viability [10] [%]	cell viability [11] [%]	cell viability [12] [%]	cell viability [13] [%]	cell viability [14] [%]	cell viability [15] [%]	cell viability [16] [%]	cell viability [17] [%]	cell viability [18] [%]	cell viability [19] [%]	cell viability [20] [%]
CC(/C=C1\SC(=S)N(CC(=O)O)C1=O)=C\c1ccccc1 [Epalrestat]	102 ± 1.1	100 ± 6.5	102 ± 5.9	92 ± 4.1	64.9 ± 48	79.3 ± 39	79.1 ± 29	75.1 ± 35	105.5 ± 0.65	102 ± 4	109 ± 3.6	97.1 ± 7.8	101.8 ± 0.5	100.82 ± 0.007	107.58 ± 0.028	95.4 ± 13	87.6 ± 2.7	94.16 ± 0.38	94.2 ± 4.2	88.6 ± 2.3
CCOC(=O)[C@@]1(CCCCCCOc2ccc(Cl)cc2)CO1 [Etomoxir]	102.9 ± 0.64	103 ± 1.2	106 ± 3.9	100 ± 5.9	84.3 ± 34	99.54 ± 0.17	92 ± 16	80.2 ± 27	106 ± 3.8	102 ± 3.4	103.8 ± 0.98	113 ± 5	87.5 ± 11	86.5 ± 21	77.9 ± 16	102 ± 3.8	109 ± 1.6	106 ± 1.7	100 ± 6.6	98 ± 6.5
Cc1c(-c2ccccc2)oc2c(C(=O)OCCN3CCCCC3)cccc2c1=O.Cl [Flavoxate]	90.8 ± 13	99.7 ± 1.6	82.5 ± 21	98.6 ± 1	101.5 ± 0.24	100 ± 1.1	101 ± 2.1	105 ± 3.5	109 ± 9.9	104 ± 2.8	105 ± 11	110 ± 16	103 ± 3.7	95.5 ± 12	98.1 ± 9.8	101 ± 9.9	97.1 ± 5.2	98.8 ± 0.023	91.7 ± 8	91.7 ± 10
O=C(O)CCc1ccc(NCc2cccc(Oc3ccccc3)c2)cc1 [GW9508]	101 ± 1.3	95.5 ± 6.2	105 ± 9.8	99.4 ± 5.3	98.73 ± 0.68	99.12 ± 0.57	98.1 ± 2.8	90.3 ± 3.8	98 ± 3.5	101.3 ± 0.3	101 ± 2.4	90.9 ± 12	105 ± 4.1	99.6 ± 0.95	108 ± 8.4	97.1 ± 6.7	103 ± 3.2	98.5 ± 1.1	107 ± 3.9	100 ± 3.3
c1ccc2c(c1)OCC(=C1NCCN1)O2 [Idazoxan]	103 ± 1.6	99.03 ± 0.46	99.9 ± 1.9	104 ± 1.9	98 ± 3.2	101.2 ± 0.3	101 ± 1.7	102 ± 1.5	102 ± 3.3	100.8 ± 0.84	101.2 ± 0.31	93 ± 1.3	96 ± 5.5	101 ± 1.5	98.4 ± 4.8	95.1 ± 1.4	100 ± 2.2	98.4 ± 3.7	99.15 ± 0.27	98.7 ± 9.1
C[C@]12O[C@H](C[C@]1(O)CO)n1c3ccccc3c3c4c(c5c6ccccc6n2c5c31)CNC4=O [Lestaurtinib]	104 ± 3.9	98.1 ± 4.1	107 ± 9.9	102 ± 4.3	92.9 ± 13	70.9 ± 44	86.5 ± 36	66.2 ± 28	76.5 ± 4.3	86.9 ± 3.4	83.2 ± 7.7	53.5 ± 8.1	23.5 ± 3.5	26.6 ± 0.46	31 ± 4.3	20.3 ± 3.2	-1.19 ± 0.32	-1.8 ± 0.59	-1.73 ± 0.11	-2.07 ± 1.2
O=C(O)c1nn(Cc2ccc(Cl)cc2Cl)c2ccccc12 [Lonidamine]	96.3 ± 3.7	97.83 ± 0.75	96.6 ± 2.2	101 ± 1.6	90.8 ± 2	105 ± 1.4	97.05 ± 0.16	99.3 ± 12	100 ± 3.7	100.5 ± 0.34	98.9 ± 2.4	98.22 ± 0.36	101 ± 1.1	101 ± 1.2	101 ± 7.9	103 ± 7.6	95.4 ± 9.7	98.4 ± 5.4	99.8 ± 5.7	94.8 ± 8.1
C1CCc2nnc(C34CC5CC(CC(C5)C3)C4)n2CC1 [MERCK-544]	103 ± 3	98.4 ± 1.3	105 ± 1.7	97 ± 1.1	103.1 ± 0.36	103 ± 2.8	108 ± 2	109 ± 8.3	99.41 ± 0.58	98.1 ± 2.4	99.8 ± 1.6	96.63 ± 0.71	100.6 ± 0.51	99.7 ± 1.4	96.27 ± 0.66	95.52 ± 0.25	108 ± 2	101 ± 2.6	109 ± 5.7	102 ± 10
CC(Cc1ccc(O)c(O)c1)C(C)Cc1ccc(O)c(O)c1 (stereo not given) [Masoprocol]	103 ± 4.1	101.9 ± 0.67	102 ± 9.7	102 ± 5.4	100 ± 7.9	98.1 ± 2.7	100.9 ± 0.44	89.6 ± 7.2	98.5 ± 1.4	96.29 ± 0.34	98.6 ± 2.7	94 ± 5.3	92.8 ± 4.1	99.3 ± 1.9	96.6 ± 4.1	86.4 ± 1.2	10.8 ± 0.34	12.9 ± 3.7	21.8 ± 0.43	4.58 ± 1
COc1c(C)c2c(c(O)c1C/C=C(\C)CCC(=O)O)C(=O)OC2 [Mycophenolic acid]	96.8 ± 3.9	72.1 ± 34	85.6 ± 16	91.1 ± 12	89.8 ± 13	96.4 ± 5.6	86.3 ± 18	92.87 ± 0.34	99 ± 6.1	95.9 ± 2.7	94.33 ± 0.34	99.1 ± 7.1	113.3 ± 0.98	106.1 ± 0.96	103 ± 7.8	98.72 ± 0.17	31.9 ± 4.8	56.2 ± 3.4	55.8 ± 1.6	55.7 ± 1.7
C1CCC(C(CC2CCCCN2)C2CCCCC2)CC1.O=C(O)/C=C\C(=O)O (stereo not given) [Perhexiline]	101 ± 3.6	108 ± 3.6	104.6 ± 0.56	90.6 ± 16	95.4 ± 6.8	102 ± 4.9	91.3 ± 14	98.9 ± 25	108 ± 5.2	103 ± 3.9	99 ± 9.2	112.1 ± 0.54	99.1 ± 2.5	105 ± 2.4	86.4 ± 9.4	73.2 ± 25	-0.971 ± 0.58	-1.01 ± 1.6	-1.86 ± 0.47	-1.67 ± 0.61
